# pIC50: −log10 of the molar value.
# Target: human Nav1.7 (Homo sapiens, UniProt Q15858)
# Assay: FLIPR sodium dye assay (CoroNa Green AM Na+ dye, primary fluorescence assay) in recombinant Nav1.7/HEK293 cells
# Format: cell-based
# Details: not given
# Sequence of human Nav1.7 (Q15858 1-1977 isoform Q15858-3): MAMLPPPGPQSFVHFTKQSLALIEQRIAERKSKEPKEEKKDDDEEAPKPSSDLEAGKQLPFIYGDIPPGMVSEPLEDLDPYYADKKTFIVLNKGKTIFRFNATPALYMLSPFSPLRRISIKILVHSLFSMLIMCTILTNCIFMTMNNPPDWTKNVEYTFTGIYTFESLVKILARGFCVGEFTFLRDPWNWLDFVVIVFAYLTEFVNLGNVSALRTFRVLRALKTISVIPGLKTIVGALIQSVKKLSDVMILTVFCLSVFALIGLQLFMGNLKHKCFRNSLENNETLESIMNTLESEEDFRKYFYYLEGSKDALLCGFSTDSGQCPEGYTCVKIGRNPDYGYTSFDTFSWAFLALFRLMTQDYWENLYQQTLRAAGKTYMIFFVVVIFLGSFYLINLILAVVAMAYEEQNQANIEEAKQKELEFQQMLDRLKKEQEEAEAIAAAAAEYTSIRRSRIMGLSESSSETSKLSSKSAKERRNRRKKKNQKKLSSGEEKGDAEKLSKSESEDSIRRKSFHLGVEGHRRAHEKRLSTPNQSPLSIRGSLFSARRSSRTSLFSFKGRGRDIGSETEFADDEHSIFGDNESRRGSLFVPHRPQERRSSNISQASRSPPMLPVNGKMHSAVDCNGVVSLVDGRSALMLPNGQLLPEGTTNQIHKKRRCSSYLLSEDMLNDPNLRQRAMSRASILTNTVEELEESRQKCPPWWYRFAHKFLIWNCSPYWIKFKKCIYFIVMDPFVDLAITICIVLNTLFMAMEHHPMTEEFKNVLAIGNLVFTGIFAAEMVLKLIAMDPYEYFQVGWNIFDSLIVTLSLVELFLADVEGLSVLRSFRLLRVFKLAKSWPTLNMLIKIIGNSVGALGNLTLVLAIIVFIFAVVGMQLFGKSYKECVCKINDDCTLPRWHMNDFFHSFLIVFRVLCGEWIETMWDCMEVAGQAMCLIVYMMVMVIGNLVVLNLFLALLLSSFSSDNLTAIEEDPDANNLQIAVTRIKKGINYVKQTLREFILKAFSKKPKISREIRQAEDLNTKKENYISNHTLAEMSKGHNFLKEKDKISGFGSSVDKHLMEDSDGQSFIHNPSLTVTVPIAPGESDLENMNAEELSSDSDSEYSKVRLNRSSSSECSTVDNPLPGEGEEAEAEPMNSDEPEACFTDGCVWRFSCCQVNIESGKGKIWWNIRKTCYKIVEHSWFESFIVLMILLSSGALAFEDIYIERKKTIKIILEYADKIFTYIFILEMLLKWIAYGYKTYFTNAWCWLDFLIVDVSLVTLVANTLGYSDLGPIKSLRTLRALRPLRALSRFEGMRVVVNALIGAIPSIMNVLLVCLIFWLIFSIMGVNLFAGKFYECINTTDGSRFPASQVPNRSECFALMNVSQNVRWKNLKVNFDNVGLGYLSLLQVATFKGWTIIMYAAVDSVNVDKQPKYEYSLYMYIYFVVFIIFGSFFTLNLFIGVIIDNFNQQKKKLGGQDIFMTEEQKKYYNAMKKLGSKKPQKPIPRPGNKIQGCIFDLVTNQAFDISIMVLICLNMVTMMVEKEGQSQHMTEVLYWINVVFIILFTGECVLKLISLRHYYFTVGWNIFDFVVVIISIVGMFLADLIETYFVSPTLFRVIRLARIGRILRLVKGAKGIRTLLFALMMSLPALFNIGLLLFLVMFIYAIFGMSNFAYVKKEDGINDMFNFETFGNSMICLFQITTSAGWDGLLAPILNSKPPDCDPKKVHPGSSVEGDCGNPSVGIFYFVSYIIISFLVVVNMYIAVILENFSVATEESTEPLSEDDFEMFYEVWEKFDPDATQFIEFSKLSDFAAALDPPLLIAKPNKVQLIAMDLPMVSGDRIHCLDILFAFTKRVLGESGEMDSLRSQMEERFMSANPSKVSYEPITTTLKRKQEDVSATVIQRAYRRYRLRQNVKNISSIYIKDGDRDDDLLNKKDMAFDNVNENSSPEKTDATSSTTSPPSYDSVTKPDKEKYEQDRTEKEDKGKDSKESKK
row,SMILES,pIC50
1,"NC(=O)c1cc(N[C@@H]2CCNC2=O)nc(-c2ccc(Oc3ccc(C(F)(F)F)cn3)cc2)n1 [compound 149, (R)-6-((2-oxopyrrolidin-3-yl)amino)-2-(4-((5-(trifluoromethyl)pyridin-2-yl)oxy)phenyl)pyrimidine-4-carboxamide]",6.49

# Same assay, conditions: Table 6; CoroNa Green AM Na+ dye primary fluorescence assay; read-out: Nav1.7 Activity (μM) FLIPR assay IC50
row,SMILES,IC50 [µM]
1,"CN1CCN(Cc2cc(Oc3ccc(C(F)(F)F)cc3)ccc2-c2nc(N[C@H]3CCNC3=O)cc(C(N)=O)n2)CC1 [Cpd No. 203, (S)-2-(2-((4-methylpiperazin-1-yl)methyl)-4-(4-(trifluoro-methyl)phenoxy)-phenyl)-6-((2-oxopyrrolidin-3-yl)amino)-pyrimidine-4-carboxamide]",0.76
2,"CC1CN1Cc1cc(Oc2ccc(F)cc2)ccc1-c1nc(N[C@H]2CCNC2=O)cc(C(N)=O)n1 (stereo partly drawn) [Cpd No. 188, 2-(4-(4-fluorophenoxy)-2-((2-methylaziridin-1-yl)methyl)-phenyl)-6-(((S)-2-oxopyrrolidin-3-yl)amino)pyrimidine-4-carboxamide]",4.64
3,"C[C@H](Nc1cc(C(N)=O)nc(-c2ccc(Oc3ccc4c(c3)CCC4)cc2)n1)C(N)=O [compound 109, (S)-6-((1-amino-1-oxopropan-2-yl)amino)-2-(4-((2,3-dihydro-1H-inden-5-yl)oxy)phenyl)pyrimidine-4-carboxamide]",0.11
4,"COc1ccc(CNc2cc(C(N)=O)nc(-c3ccc(Oc4ccc(F)cc4)cc3)n2)c(OC)c1 [Cpd No. 178, 6-((2,4-dimethoxybenzyl)amino)-2-(4-(4-fluorophenoxy)phenyl)-pyrimidine-4-carboxamide]",1.74
5,"NC(=O)c1cc(O[C@H]2CCN(C[C@H](O)CO)C2=O)nc(-c2ccc(Oc3ccc(F)cc3)cc2)n1 [compound 123, 6-(((S)-1-((S)-2,3-dihydroxypropyl)-2-oxopyrrolidin-3-yl)oxy)-2-(4-(4-fluorophenoxy)phenyl)pyrimidine-4-carboxamide]",0.67
6,"N#Cc1ccc(Oc2ccc(-c3nc(N[C@H]4CCNC4=O)cc(C(N)=O)n3)cc2)cc1 [compound 113, (S)-2-(4-(4-cyanophenoxy)phenyl)-6-((2-oxopyrrolidin-3-yl)amino)pyrimidine-4-carboxamide]",0.29
7,"NC(=O)c1cc(N[C@H]2CCNC2=O)nc(-c2ccc(C(=O)c3ccc(C(F)(F)F)cn3)cc2)n1 [compound 162, (S)-6-((2-oxopyrrolidin-3-yl)amino)-2-(4-(5-(trifluoromethyl)picolinoyl)phenyl)pyrimidine-4-carboxamide]",1.9
8,"NC(=O)c1cc(N[C@H]2CCNC2=O)nc(-c2ccc(Oc3cnc(OCC(F)(F)F)cn3)cc2)n1 [compound 151, (S)-6-((2-oxopyrrolidin-3-yl)amino)-2-(4-((5-(2,2,2-trifluoroethoxy)pyrazin-2-yl)oxy)phenyl)pyrimidine-4-carboxamide]",0.35
9,"NC(=O)c1cc(N[C@H]2CCNC2=O)nc(N2C3CCC2CC(Oc2ccc(C(F)(F)F)cc2)C3)n1 (stereo partly drawn) [compound 135, 6-(((S)-2-oxopyrrolidin-3-yl)amino)-2-(3-(4-(trifluoromethyl)phenoxy)-8-azabicyclo[3.2.1]octan-8-yl)pyrimidine-4-carboxamide]",1.62
10,"C[C@H](Nc1cc(C(N)=O)nc(Oc2ccc(F)cc2)n1)C(N)=O [compound 104, (S)-6-((1-amino-1-oxopropan-2-yl)amino)-2-(4-fluorophenoxy)pyrimidine-4-carboxamide]",> 20
11,"NC(=O)c1cc(N[C@H]2CCNC2=O)nc(N2[C@@H]3CC[C@H]2C[C@@H](Oc2ccc(C(F)(F)F)cc2CN2CCCC2)C3)n1 [Cpd No. 191, 6-(((S)-2-oxopyrrolidin-3-yl)amino)-2-((1R,3S,5S)-3-(2-(pyrrolidin-1-ylmethyl)-4-(trifluoromethyl)phenoxy)-8-azabicyclo[3.2.1]octan-8-yl)pyrimidine-4-carboxamide]",1.97
12,"NC(=O)c1cc(N[C@H]2CCNC2=O)nc(-c2ccc(Oc3ccc(C(F)(F)F)cc3C3=CCNCC3)cc2)n1 [Cpd No. 206, (S)-6-((2-oxopyrrolidin-3-yl)amino)-2-(4-(2-(1,2,3,6-tetrahydropyridin-4-yl)-4-(trifluoromethyl)phenoxy)phenyl)pyrimidine-4-carboxamide]",5.28
13,"N#Cc1cc(C(F)(F)F)ccc1O[C@H]1C[C@H]2CC[C@@H](C1)N2c1nc(N[C@H]2CCNC2=O)cc(C(N)=O)n1 [Cpd No. 204, 2-((1R,3S,5S)-3-(2-cyano-4-(trifluoromethyl)phenoxy)-8-azabicyclo-[3.2.1]octan-8-yl)-6-(((S)-2-oxopyrrolidin-3-yl)amino)pyrimidine-4-carboxamide]",> 20
14,"NC(=O)c1cc(N2CCC[C@H]2C(N)=O)nc(-c2ccc(Oc3ccc(OC(F)(F)F)cc3)cc2)n1 [compound 125, (S)-6-(2-carbamoylpyrrolidin-1-yl)-2-(4-(4-(trifluoromethoxy)phenoxy)phenyl)pyrimnidine-4-carboxamide]",0.28
15,"NC(=O)c1cc(N[C@H]2CCNC2=O)nc(-c2ccc(Oc3ccc(C(F)(F)F)c(C4=CCNCC4)c3)cc2)n1 [Cpd No. 205, (S)-6-((2-oxopyrrolidin-3-yl)amino)-2-(4-(3-(1,2,3,6-tetrahydropyridin-4-yl)-4-(trifluoromethyl)phenoxy)phenyl)pyrimidine-4-carboxamide]",> 20
16,"COc1cnc(Oc2ccc(-c3nc(N[C@@H](C)C(N)=O)cc(C(N)=O)n3)cc2)cn1 [Cpd No. 198, (S)-6-((1-amino-1-oxopropan-2-yl)amino)-2-(4-((5-methoxy-pyrazin-2-yl)oxy)phenyl)-pyrimidine-4-carboxamide]",> 20

row,SMILES,IC50 [µM]
1,"NC(=O)c1cc(N[C@H]2CCNC2=O)nc(-c2ccc(Oc3ccc(F)cc3)cc2Cn2cncn2)n1 [compound 164, (S)-2-(2-((1H-1,2,4-triazol-1-yl)methyl)-4-(4-fluorophenoxy)phenyl)-6-((2-oxopyrrolidin-3-yl)amino)pyrimidine-4-carboxamide]",1.45
2,"NC(=O)c1cc(O[C@H](C(N)=O)C(O)CO)nc(-c2ccc(Oc3ccc(C(F)(F)F)cc3)cc2)n1 (stereo partly drawn) [compound 124, 6-(((2S)-1-amino-3,4-dihydroxy-1-oxobutan-2-yl)oxy)-2-(4-(4-(trifluoromethyl)phenoxy)phenyl)pyrimidine-4-carboxamide]",0.7
3,"C[C@@H](Nc1cc(C(N)=O)nc(-c2ccc(Oc3ccc(C(C)(C)C)cc3)cc2)n1)C(N)=O [compound 110, (R)-6-((1-amino-1-oxopropan-2-yl)amino)-2-(4-(4-(tert-butyl)phenoxy)phenyl)pyrimidine-4-carboxamide]",0.2
4,"NC(=O)c1cc(N[C@H]2CCNC2=O)nc(-c2ccc(Oc3ccc(C(F)(F)F)cc3)cc2)n1 [compound 114, (S)-6-((2-oxopyrrolidin-3-yl)amino)-2-(4-(4-(trifluoromethyl)phenoxy)phenyl)pyrimidine-4-carboxamide]",0.33
5,"CN1CCN(c2cc(C(F)(F)F)ccc2Oc2ccc(-c3nc(N[C@H]4CCNC4=O)cc(C(N)=O)n3)cc2)CC1 [Cpd No. 211, (S)-2-(4-(2-(4-methylpiperazin-1-yl)-4-(trifluoromethyl)-phenoxy)phenyl)-6-((2-oxopyrrolidin-3-yl)amino)-pyrimidine-4-carboxamide]",4.16
6,"NC(=O)c1cc(N[C@H]2CCNC2=O)nc(-c2ccc(Oc3ccc(F)cc3)cc2CN2CCCCC2)n1 [compound 158, (S)-2-(4-(4-fluorophenoxy)-2-(piperidin-1-ylmethyl)phenyl)-6-((2-oxopyrrolidin-3-yl)amino)pyrimidine-4-carboxamide]",0.89
7,"C[C@H](Nc1cc(C(N)=O)nc(-c2ccc(Oc3ccc(C(F)(F)F)cc3CN3CCCC3)cc2)n1)C(N)=O [compound 170, (S)-6-((1-amino-1-oxopropan-2-yl)amino)-2-(4-(2-(pyrrolidin-1-ylmethyl)-4-(trifluoromethyl)phenoxy)phenyl) pyrimidine-4-carboxamide]",1.17
8,"NC(=O)c1cc(N[C@H]2CCNC2=O)nc(-c2ccc(CC3CCC(C(F)(F)F)CN3)cc2)n1 (stereo partly drawn) [Cpd No. 185, 6-(((S)-2-oxopyrrolidin-3-yl)amino)-2-(4-((5-(trifluoromethyl)piperidin-2-yl)methyl)phenyl)pyrimidine-4-carboxamide]",8.69
9,"NC(=O)c1cc(N[C@H]2CCNC2=O)nc(Nc2ccc(Oc3ccc(C(F)(F)F)cn3)cc2)n1 [compound 172, (S)-6-((2-oxopyrrolidin-3-yl)amino)-2-((4-((5-(trifluoromethyl)pyridin-2-yl)oxy)phenyl)amino)pyrimidine-4-carboxamide]",2.07
10,"NC(=O)c1cc(N[C@H]2CCNC2=O)nc(-c2ccc(Oc3cnc(C4CC4)cn3)cc2)n1 [compound 165, (S)-2-(4-((5-cyclopropylpyrazin-2-yl)oxy)phenyl)-6-((2-oxopyrrolidin-3-yl)amino)pyrimidine-4-carboxamide]",1.19
11,"Cn1ccnc1CNc1cc(C(N)=O)nc(-c2ccc(Oc3ccc(F)cc3)cc2)n1 [Cpd No. 180, 2-(4-(4-fluorophenoxy)phenyl)-6-(((1-methyl-1H-imidazol-2-yl)methyl)-amino)pyrimidine-4-carboxamide]",0.14
12,"CC(C)(CO)[C@H](Oc1cc(C(N)=O)nc(-c2ccc(Oc3ccc(C(F)(F)F)cc3)cc2)n1)C(N)=O [compound 120, (S)-6-((1-amino-4-hydroxy-3,3-dimethyl-1-oxobutan-2-yl)oxy)-2-(4-(4-(trifluoromethyl)phenoxy)phenyl) pyrimidine-4-carboxamide]",0.76
13,"NC(=O)c1cc(N2CCNCC2C(N)=O)nc(-c2ccc(Oc3ccc(Cl)cc3F)cc2)n1 (centres unmarked) [compound 108, 6-(2-carbamoylpiperazin-1-yl)-2-(4-(4-chloro-2-fluorophenoxy)phenyl)pyrimnidine-4-carboxamide]",0.29
14,"NC(=O)c1cc(O[C@H]2CCNC2=O)nc(-c2ccc(Oc3ccc(F)cc3)cc2)n1 [compound 118, (S)-2-(4-(4-fluorophenoxy)phenyl)-6-((2-oxopyrrolidin-3-yl)oxy)pyrimidine-4-carboxamide]",0.35
15,"NC(=O)c1cc(N[C@H]2CCNC2=O)nc(N2C3CCC2CC(Oc2ccc(F)cc2)C3)n1 (stereo partly drawn) [compound 159, 2-(3-(4-fluorophenoxy)-8-azabicyclo[3.2.1]octan-8-yl)-6-(((S)-2-oxopyrrolidin-3-yl)amino)pyrimidine-4-carboxamide]",1.29

# From patent US10196364B2, “Pyrimidine carboxamides as sodium channel blockers” (Purdue Pharma L.P., priority 2013, dated 2019)
